Test results taken from publication PMC11433283, “Sulfated Aeruginosins from Lake Kinneret: Microcystis Bloom, Isolation, Structure Elucidation, and Biological Activity” (Marine Drugs, 2024).

Biological target: T1, serine protease trypsin (Bos taurus, UniProt P00760)
T1 construct: purchased Sigma-Aldrich T1426
T1 sequence (P00760 24-246): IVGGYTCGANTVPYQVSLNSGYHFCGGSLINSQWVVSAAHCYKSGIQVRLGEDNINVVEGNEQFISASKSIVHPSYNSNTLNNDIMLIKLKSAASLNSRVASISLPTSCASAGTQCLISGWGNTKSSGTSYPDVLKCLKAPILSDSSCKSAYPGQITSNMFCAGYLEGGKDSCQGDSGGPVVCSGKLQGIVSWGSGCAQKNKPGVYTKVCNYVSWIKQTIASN
Assay: Trypsin inhibition (protease inhibition assay, BAPNA substrate)
Assay type: biochemical
Details: for IC50: Tris buffer (50 mM Tris-HCl, 100 mM NaCl, 1 mM CaCl2, pH 7.5), 37 °C, 5 min pre-incubation, absorbance 405 nm, kinetic over 10 min; for IC50 values for trypsin compared with those of aeruginosins KT608A and KT608B: comparison with literature values of KT608A and KT608B [19]
Experimental: The samples for biological assays were dissolved in ethanol at a concentration of 1 mg/mL and further diluted with Tris buffer to the desired concentrations. The samples were tested for inhibition of trypsin (Cat# T1426, Sigma-Aldrich, St. Louis, MO, USA). The assay was performed in a Tris buffer (50 mM Tris-HCl, 100 mM NaCl, and 1 mM CaCl2 at pH 7.5). Benzoyl-L-arginine-p-nitroanilide hydrochloride (BAPNA Cat# 03,310 Chem-Impex Int’l Inc., Wood Dale, IL, USA), the trypsin substrate was dissolved at 1 mg/mL in 1:9 EtOH/buffer. The enzyme was dissolved in a buffer at 1 mg/mL. To each well were added 100 µL of buffer, 10 µL of enzyme, and 10 µL of sample. The plate was placed in the spectrophotometer at 37 °C. After 5 min, 100 µL of substrate solution was added to each well, and the plate was placed in the spectrophotometer for the kinetic measurement of the absorbance intensity over 10 min at a wavelength of 405 nm.

Compound	IC50 (BAPNA substrate) [nM]	IC50 values for trypsin compared with those of aeruginosins KT608A and KT608B	Inhibition of trypsin (inactive at tested concentration) (at a concentration of 1.7 mM, BAPNA substrate, pH 7.5, 37 °C, 405 nm)
N=C(N)NCCCCNC(=O)[C@@H]1C[C@@H]2CC[C@@H](OS(=O)(=O)O)C[C@@H]2N1C(=O)[C@H](CCc1ccc(O)cc1)NC(=O)[C@@H](O)Cc1ccc(O)cc1 [Aeruginosin KT718, L-Hpla-L-Hty-L-Choi-6-sulfate-Agm]	1430	comparable with those of aeruginosins KT608A and KT608B	
N=C(N)NCCCCNC(=O)[C@@H]1C[C@@H]2CC[C@@H](OS(=O)(=O)O)C[C@@H]2N1C(=O)[C@@H](Cc1ccccc1)NC(=O)[C@@H](O)Cc1ccc(O)cc1 [Aeruginosin KT688, L-Hpla-D-Phe-L-Choi-6-sulfate-agmatine]	2380	comparable with those of aeruginosins KT608A and KT608B	
6-Cl-Hpla-7-sulfate-2-Ile-Choi-amide [Aeruginosin KT575]			inactive
